In US7704756B2, “Fluorogenic dyes” (Novartis Vaccines and Diagnostics, Inc., priority 2003, dated 2010):

What was measured:
[1] = Reporter selectively fluorescent under reducing conditions (DTT versus control buffer); type: physicochemical; conditions: compound 9 at 50 mM
Method: An experiment was conducted to determine the effect of reducing conditions versus non-reducing conditions on a reporter compound according to the invention (compound 9). Two incubations were conducted with compound 9 at a concentration of 50 mM. A control incubation was conducted which compared the same molar concentration of compound 9 in 10 mM Na phosphate at pH 7.5. A reducing reaction composition was made comprising the same buffer, and 10 mM dithiothreitol (DTT). […] For this example, synthesis of compound was conducted as previously described.

[2] = pH 7.5 buffer
Method: An experiment was conducted to test the ability of compound 12 to respond to reducing conditions. Two incubations were performed: in the first, a control incubation, a sample of compound 12 was added to pH 7.5 buffer. In a second incubation (+DTT), the same amount of compound 12 was added to pH 7.5 buffer and then DTT was added to a final concentration of 10 mM.

Molecule: CC(=O)O.CC(C)(CCSSCC[N+](C)(C)C)C(=O)Oc1ccc2c(c1)Oc1cc(OC(=O)C(C)(C)CCSSCC[N+](C)(C)C)ccc1C21OC(=O)c2ccccc21 [compound 9, Bis(4-(2′-(trimethylamino)ethanedithio)-2,2-dimethylbutyryl)carboxyfluorescein]
- mass spectrometry analysis of content of DTT containing reaction ([1]; 10 mM Na phosphate pH 7.5, 10 mM DTT): only fluorescein
- fluorescence under reducing conditions ([1]; 10 mM Na phosphate pH 7.5, 10 mM dithiothreitol (DTT), after one minute at room temperature): strong green fluorescence
- mass spectrometry analysis of content of control reaction ([1]; 10 mM Na phosphate pH 7.5, no DTT): only compound 9

Molecule: 5(6)-Carboxy-2′,7′-dichloro-3′,6′-bis(2′″-trimethylammonium(ethanedithio))fluorescein [compound 12]
- colour of solution after addition of DTT (formation of free dichlorodithiofluorescein dye) ([2]; DTT 10 mM final, within one minute after addition): turned light blue
- colour of control incubation ([2]; no DTT): remained colorless
